From patent EP4467141A1, “PYRAZOLO-QUINOLINES AS SELECTIVE INHIBITORS OF GENOTOXIC STRESS-INDUCED IKK/NF- KB PATHWAYS FOR CANCER THERAPY” (Max-Delbrück-Centrum für Molekulare Medizin in der …, priority 2023, dated 2024)

Tests used:
Type in all cases: cell-based
[1] = tested on: NF-κB subunit p65 phosphorylation (S536); assay: Western blot of p65 phosphorylation (S536) after DNA damage (irradiation or etoposide) in U2-OS cells; conditions: 1-hour pre-treatment, irradiation (IR, 20 Gy), 90 min
Description: (§1) Fig.1: Identification of inhibitors specific for DNA damage-induced NF-κB activity. (A) Flowchart representing the high-throughput chemical library screening. A screen/counter-screen strategy was used by stimulating NF-κB in U2-OS cells with etoposide (50 µM for 90 min) and hits were counter-screened with TNFα (10 ng/ml for 20 min). Cells were pre-treated with compounds (10 µM) for 1 hour before stimulation, fixed, and percent p65 nuclear translocation measured by fluorescence microscopy. IC50 values were used for final selection. (B) Comparison of mean p65 nuclear translocation following either etoposide or TNFa stimulation after treatment with each counter-screened hit compound. Values were normalized to etoposide or TNFα positive controls. Specific inhibitors (red) of DNA damage-induced NF-κB signaling were defined by setting cut-off criteria (black line). […] (C) IC50 determination for MW01 (left) and MW05 (right) of p65 nuclear translocation, following either etoposide or TNFα treatment. […] IC50 noted with a dotted line. (D) Structures of compounds selected as leads for further analysis, MW01 (5-Hydroxy-10,11-dimethoxy-9H-benzo[c]indolo[3,2,1-ij][1,5]naphthyridin-9-one) and MW05 (3-Amino-7-methoxypyrazolo[3,4-b]quinolin-1-yl)-[3-(dimethylamino)phenyl]methanone). (E) Western blot analysis (top) and quantification (bottom) of NF-κB subunit p65 phosphorylation (S536) following 1-hour pre-treatment with DMSO, MW01 (10 µM), or MW05 (10 µM), in unstimulated, after 90 min irradiation (IR, 20 Gy), or after 20 min TNFα (10 ng/mL) conditions in U2- OS cells. B-actin was used as loading control after. The p-p65 signal was first normalized to β-actin loading control per sample, then each value to DMSO-treated unstimulated to evaluate relative activation of NF-κB. Ns: not significant; ***: p<0.001.
NF-κB was stimulated by DNA damage through either 20 Gy irradiation (IR) and analyzed after 90 minutes or by 10 ng/ml TNFα and analyzed after 20 minutes unless otherwise noted.
All compounds were pre-treated for 1-hour prior to NF-κB stimulation unless otherwise noted.
(§2) Cells were collected by scraping and lysed in Baeuerle lysis buffer supplemented with Protease (Thermo Fisher Scientific, 78429) and Phosphatase (Thermo Fisher Scientific, 78420) inhibitors after the appropriate treatment and time point. Proteins were quantified by Bradford assay (Bio-Rad, 5000006) and 20-50 µg of extracted proteins were loaded on 4-20% Protein Gel (Bio-Rad, 4568096) and then transferred onto a PVDF membrane (Bio-Rad, 1620177) using Tris-Glycine buffer with 20% of methanol. Blocking was performed for 1h with 5% not-fat dry milk in PBS 1X. Immunodetection was obtained using primary and secondary antibodies reported in Key Resources Table. The membranes were analyzed by ECL (Thermo Fisher Scientific, 34580) and detected by ChemiDoc XRS+ (Bio-Rad) using ImageLab software (Bio-Rad).

[2] = tested on: NF-κB subunit p65 phosphorylation (S536); assay: Western blot of p65 phosphorylation (S536) after TNFα in U2-OS cells; conditions: 1-hour pre-treatment, TNFα 10 ng/ml, 20 min
Description: as §1, with “(D) Structures of compounds selected as leads for further analysis, MW01 (5-Hydroxy-10,11-dimethoxy-9H-benzo[c]indolo[3,2,1-ij][1,5]naphthyridin-9-one) and MW05 (3-Amino-7-methoxypyrazolo[3,4-b]quinolin-1-yl)-[3-(dimethylamino)phenyl]methanone).” left out, “B-actin was used as loading control after. The p-p65 signal was first normalized to β-actin loading control per sample, then each value to DMSO-treated unstimulated to evaluate relative activation of NF-κB. Ns: not significant; ***: p<0.001.” left out
NF-κB was stimulated by DNA damage through either 20 Gy irradiation (IR) and analyzed after 90 minutes or by 10 ng/ml TNFα and analyzed after 20 minutes unless otherwise noted. […]
Cells were collected by scraping and lysed in Baeuerle lysis buffer supplemented with Protease (Thermo Fisher Scientific, 78429) and Phosphatase (Thermo Fisher Scientific, 78420) inhibitors after the appropriate treatment and time point. Proteins were quantified by Bradford assay (Bio-Rad, 5000006) and 20-50 µg of extracted proteins were loaded on 4-20% Protein Gel (Bio-Rad, 4568096) and then transferred onto a PVDF membrane (Bio-Rad, 1620177) using Tris-Glycine buffer with 20% of methanol. […]

[3] = tested on: Akt phosphorylation (S473); assay: Western blot of Akt phosphorylation (S473) in U2-OS cells; conditions: 1-hour pre-treatment
Description: Fig.2: MW01 and MW05 are potent and selective kinase inhibitors. […] Heatmap indicates lower IC50. […] (C) Western blot analysis of NF-κB p65 phosphorylation (S536) and Akt phosphorylation (S473) following 1-hour pre-treatment with DMSO, MW01 (10 µM), MW05 (10µM), PI-103 (1 µM), NU7441 (1 µM), or MU1210 (1 µM) in unstimulated, after 90 min irradiation (IR, 20 Gy), or after 20 min TNFα (10 ng/ml) conditions in U2-OS cells. (D) mRNA expression analysis of CLK2 (top), 48 hours after transfection with siNC, CLK2 si1, or CLK2 si2. mRNA expression analysis of NFKBIA (bottom), 48 hours after transfection with siNC, CLK2 si1, orCLK2 si2. Values are normalized to unstimulated siNC expressing cells. Statistical comparison was made between experimental conditions and respective paired siNC expressing controls. ns: not significant; **, ***, ****: p<0.01, p<0.001, p<0.000. (E) Western blot analysis of U2-OS cells after transfection with siNC or CLK2 si2 unstimulated, after irradiation (IR), or after TNFα treatment. Vinculin used as loading control. (F) IC50 (nM) of all CLK isoforms for MW01 and MW05. (G) Quantification from (E) with CLK2 knockdown and p-p65 quantification (top left and top right, respectively) and CLK4 knockdown and p-p65 (bottom left and bottom right, respectively. ns: not significant; **, ***, ****: p<0.01, p<0.001, p<0.0001.
as §2, with “Immunodetection was obtained using primary and secondary antibodies reported in Key Resources Table.” left out, “(Bio-Rad). […]” for “(Bio-Rad).”

| SMILES | phosphorylation of p65 at serine 536 after DNA damage [1] | phosphorylation of p65 at serine 536, TNFα-stimulated [2] | reduction of p-Akt [3] |
| --- | --- | --- | --- |
| Cn1cc(-c2ccc3occ(-c4ccccc4-c4ccccc4)c3n2)cn1 [MU140, reference compound] | not | – | – |
| Cn1cc(-c2ccc3occ(-c4cccc(-c5ccncc5)c4)c3n2)cn1 [MU-1210, reference compound] | reduction in p65 phosphorylation | – | – |
| O=c1cc(N2CCOCC2)oc2c(-c3cccc4c3sc3ccccc34)cccc12 [NU-7441, reference compound] | did not reduce p-p65 | did not reduce p-p65 | – |
| Oc1cccc(-c2nc(N3CCOCC3)c3oc4ncccc4c3n2)c1 [PI-103, reference compound] | – | – | complete reduction |
